Measurements as given in patent US20090227607A1, “DEAZAPURINES USEFUL AS INHIBITORS OF JANUS KINASES” (priority 2006, published 2009).

Tests used:
JAK3 = biological target: T1, JAK3 (Homo sapiens, UniProt P52333); experiment: JAK3 Inhibition Assay; type: biochemical; conditions: 1 μM poly(Glu)4Tyr, 5 μM ATP, 1 nM JAK3, 25° C.; read-out: JAK3 enzyme inhibition data (Ki)
T1 sequence (P52333 1-1124): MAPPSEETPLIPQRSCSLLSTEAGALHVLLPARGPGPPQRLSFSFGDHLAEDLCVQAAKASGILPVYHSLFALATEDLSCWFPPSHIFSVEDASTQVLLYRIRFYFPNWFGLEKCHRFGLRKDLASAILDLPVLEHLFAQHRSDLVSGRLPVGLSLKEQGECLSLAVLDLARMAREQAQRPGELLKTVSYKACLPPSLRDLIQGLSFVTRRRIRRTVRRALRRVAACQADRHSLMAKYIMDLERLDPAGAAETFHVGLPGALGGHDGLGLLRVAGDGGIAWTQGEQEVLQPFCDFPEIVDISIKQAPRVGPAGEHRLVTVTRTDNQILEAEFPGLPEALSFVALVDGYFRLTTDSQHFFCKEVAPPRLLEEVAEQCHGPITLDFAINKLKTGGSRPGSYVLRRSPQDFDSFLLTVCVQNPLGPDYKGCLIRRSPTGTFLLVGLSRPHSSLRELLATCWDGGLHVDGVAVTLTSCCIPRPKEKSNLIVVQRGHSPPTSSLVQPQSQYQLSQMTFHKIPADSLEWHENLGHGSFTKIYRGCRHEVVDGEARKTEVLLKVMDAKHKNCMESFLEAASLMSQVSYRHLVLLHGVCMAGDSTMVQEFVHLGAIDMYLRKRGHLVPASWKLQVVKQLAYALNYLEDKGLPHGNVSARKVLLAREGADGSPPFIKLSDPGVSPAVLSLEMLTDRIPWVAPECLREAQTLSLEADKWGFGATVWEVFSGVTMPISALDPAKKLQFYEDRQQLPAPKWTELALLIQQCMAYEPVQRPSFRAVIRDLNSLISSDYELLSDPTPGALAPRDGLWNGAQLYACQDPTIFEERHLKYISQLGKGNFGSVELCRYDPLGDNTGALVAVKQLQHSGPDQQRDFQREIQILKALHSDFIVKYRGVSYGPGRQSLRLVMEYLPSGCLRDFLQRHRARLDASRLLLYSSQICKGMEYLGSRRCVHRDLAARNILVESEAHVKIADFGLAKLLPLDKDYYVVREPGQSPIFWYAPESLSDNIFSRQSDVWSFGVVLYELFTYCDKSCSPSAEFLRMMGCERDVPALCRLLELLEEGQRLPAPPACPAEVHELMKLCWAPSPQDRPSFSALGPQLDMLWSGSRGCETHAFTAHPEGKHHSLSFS
Method: (§1) Compounds were screened for their ability to inhibit JAK3 using the assay shown below. Reactions were carried out in a kinase buffer containing 100 mM HEPES (pH 7.4), 1 mM DTT, 10 mM MgCl2, 25 mM NaCl, and 0.01% BSA. Substrate concentrations in the assay were 5 μM ATP (200 uCi/μmole ATP) and 1 μM poly(Glu)4Tyr. Reactions were carried out at 25° C. and 1 nM JAK3.
(§2) To each well of a 96 well polycarbonate plate was added 1.5 μl of a candidate JAK3 inhibitor along with 50 μl of kinase buffer containing 2 μM poly(Glu)4Tyr and […]. This was then mixed and […] of kinase buffer containing 2 nM JAK3 enzyme was added to start the reaction. After 20 minutes at room temperature (25° C.), the reaction was stopped with 50 μl of 20% trichloroacetic acid (TCA) that also contained 0.4 mM ATP. The entire contents of each well were then transferred to a 96 well glass fiber filter plate using a TomTek Cell Harvester. After washing, 60 μl of scintillation fluid was added and ^33P incorporation detected on a Perkin Elmer TopCount.
(§3) Tables 5 and 6 depict enzyme inhibition data (Ki) for certain exemplary compounds. Compound numbers in Tables 5 and 6 correspond to those compounds depicted in Tables 1 and 2, respectively.

JAK-2 enzyme = JAK-2 enzyme (Homo sapiens, UniProt O60674); experiment: JAK2 Inhibition Assay; type: biochemical; conditions: 15 μM poly(Glu)4Tyr, 12 μM ATP, 25° C.
Method: as §1, §2
The assays were as described above in Example 36 except that JAK-2 enzyme was used, the final poly(Glu)4Tyr concentration was 15 μM, and final ATP concentration was 12 μM.
as §3

JAK-2 enzyme, sequence (O60674 whole entry, species assumed): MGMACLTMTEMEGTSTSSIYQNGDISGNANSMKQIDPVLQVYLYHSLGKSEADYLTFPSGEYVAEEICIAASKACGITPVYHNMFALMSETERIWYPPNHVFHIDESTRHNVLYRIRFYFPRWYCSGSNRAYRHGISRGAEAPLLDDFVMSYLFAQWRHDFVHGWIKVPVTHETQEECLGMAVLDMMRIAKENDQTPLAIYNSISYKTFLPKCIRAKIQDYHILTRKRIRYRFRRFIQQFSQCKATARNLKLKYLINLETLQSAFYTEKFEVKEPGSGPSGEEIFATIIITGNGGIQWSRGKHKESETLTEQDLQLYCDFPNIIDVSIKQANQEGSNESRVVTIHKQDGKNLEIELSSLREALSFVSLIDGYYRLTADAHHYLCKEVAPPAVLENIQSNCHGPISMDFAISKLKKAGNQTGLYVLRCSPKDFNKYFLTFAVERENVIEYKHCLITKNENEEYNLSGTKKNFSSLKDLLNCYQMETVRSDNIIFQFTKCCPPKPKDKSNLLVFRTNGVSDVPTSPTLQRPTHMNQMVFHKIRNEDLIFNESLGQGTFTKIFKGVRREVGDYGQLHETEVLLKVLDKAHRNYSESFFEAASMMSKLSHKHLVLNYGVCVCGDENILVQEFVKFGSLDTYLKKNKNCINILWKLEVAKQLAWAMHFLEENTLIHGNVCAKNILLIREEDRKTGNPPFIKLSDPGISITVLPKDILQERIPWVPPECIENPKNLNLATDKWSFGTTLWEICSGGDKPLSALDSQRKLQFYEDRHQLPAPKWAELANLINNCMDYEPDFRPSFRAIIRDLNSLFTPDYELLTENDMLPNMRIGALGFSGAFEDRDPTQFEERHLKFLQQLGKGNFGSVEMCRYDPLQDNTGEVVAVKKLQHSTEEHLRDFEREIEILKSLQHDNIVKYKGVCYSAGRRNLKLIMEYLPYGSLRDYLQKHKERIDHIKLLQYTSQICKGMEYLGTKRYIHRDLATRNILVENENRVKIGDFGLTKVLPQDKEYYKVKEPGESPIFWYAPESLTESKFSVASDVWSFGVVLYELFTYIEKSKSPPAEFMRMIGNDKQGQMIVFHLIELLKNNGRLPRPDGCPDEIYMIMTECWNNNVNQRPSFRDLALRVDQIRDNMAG

Compound	Ki (JAK3) [nM]	Ki (JAK-2 enzyme) [nM]
N#CCCN(CC1CC1)C(=O)c1cc(-c2ncnc3[nH]ccc23)c[nH]1 [Compound 115]	< 100	< 100
O=C(NC1CCCC1)c1cc(-c2ncnc3[nH]ccc23)c[nH]1 [Compound 13]	< 100	< 100
CCC(CC)NC(=O)c1cc(-c2ncnc3[nH]ccc23)c[nH]1 [Compound 11]	100 to 500	< 100
COC1CCC(C(=O)Nc2nc(-c3ncnc4[nH]ccc34)cs2)CC1 (centres unmarked) [Compound 117]	100 to 500	< 100
O=C(Nc1nc(-c2ncnc3[nH]ccc23)cs1)C1CCC1 [Compound 57]	< 100	< 100
CCCCN(CCC#N)C(=O)c1cc(-c2ncnc3[nH]ccc23)c[nH]1 [Compound 22]	< 100	< 100
CC1CCC(C(=O)Nc2nc(-c3ncnc4[nH]ccc34)cs2)CC1 (centres unmarked) [Compound 62]	100 to 500	< 100
CCCN(CC1CC1)C(=O)c1cc(-c2ncnc3[nH]ccc23)c[nH]1 [Compound 20]	< 100	< 100
CN(C)C1CCN(C(=O)c2cc(-c3ncnc4[nH]ccc34)c[nH]2)C1 (centres unmarked) [Compound 50]	500 to 5000	500 to 5000
CCC(CC)n1cc(-c2ncnc3[nH]ccc23)cn1 [Compound 39]	< 100	< 100
N#CCN(Cc1ccccc1)C(=O)c1cc(-c2ncnc3[nH]ccc23)c[nH]1 [Compound 111]	< 100	< 100
O=C(NC1CC1)c1cc(-c2ncnc3[nH]ccc23)c[nH]1 [Compound 12]	100 to 500	< 100
CC(C)OCCNC(=O)C(C)n1cc(-c2ncnc3[nH]ccc23)cn1 (centres unmarked) [Compound 85]	500 to 5000	500 to 5000
CCC(O)CNC(=O)C(C)n1cc(-c2ncnc3[nH]ccc23)cn1 (centres unmarked) [Compound 83]	100 to 500	500 to 5000
CC(C)CCC(=O)Nc1nc(-c2ncnc3[nH]ccc23)cs1 [Compound 72]	< 100	< 100
CCCN(CCC#N)C(=O)c1cc(-c2ncnc3[nH]ccc23)c[nH]1 [Compound 21]	< 100	< 100

Compound	Ki (JAK3) [nM]	Ki (JAK-2 enzyme) [nM]
CC(C(=O)NC1CC1)n1cc(-c2ncnc3[nH]ccc23)cn1 (centres unmarked) [Compound 73]	100 to 500	100 to 500
C=CCN(C(=O)c1cc(-c2ncnc3[nH]ccc23)c[nH]1)C(C)c1ccccc1 (centres unmarked) [Compound 116]	< 100	< 100
O=C(CCC1CC1)Nc1nc(-c2ncnc3[nH]ccc23)cs1 [Compound 96]	< 100	< 100
CSCCNC(=O)C(C)n1cc(-c2ncnc3[nH]ccc23)cn1 (centres unmarked) [Compound 84]	100 to 500	100 to 500
C=CCN(C(=O)c1cc(-c2ncnc3[nH]ccc23)c[nH]1)C(C)c1ccccc1 (centres unmarked) [Compound 114]	< 100	< 100
O=C(c1cc(-c2ncnc3[nH]ccc23)c[nH]1)N1CCCC(O)C1 (centres unmarked) [Compound 51]	500 to 5000	100 to 500
CC(C(=O)N(C)C)n1cc(-c2ncnc3[nH]ccc23)cn1 (centres unmarked) [Compound 77]	500 to 5000	100 to 500
O=C(c1cc(-c2ncnc3[nH]ccc23)c[nH]1)N(CCC(F)(F)F)Cc1ccccc1 [Compound 108]	< 100	< 100
CC(C(=O)NCC(F)(F)F)n1cc(-c2ncnc3[nH]ccc23)cn1 (centres unmarked) [Compound 91]	< 100	< 100
O=C(c1cc(-c2ncnc3[nH]ccc23)c[nH]1)N1CCCC1CO (centres unmarked) [Compound 41]	500 to 5000	100 to 500
NC(=O)C1CCCN1C(=O)c1cc(-c2ncnc3[nH]ccc23)c[nH]1 (centres unmarked) [Compound 47]	100 to 500	100 to 500
O=C(Nc1nc(-c2ncnc3[nH]ccc23)cs1)C1CCCC1O (centres unmarked) [Compound 60]	< 100	< 100
c1nc(-c2cnn(C3CCCC3)c2)c2cc[nH]c2n1 [Compound 36]	< 100	< 100
CN(C)CCCN(C)C(=O)c1cc(-c2ncnc3[nH]ccc23)c[nH]1 [Compound 44]	500 to 5000	500 to 5000
O=C(N[C@H](CO)c1cccc(Cl)c1)c1cc(-c2ncnc3[nH]ccc23)c[nH]1 [Compound 1]	< 100	
CC(C(=O)OC(C)(C)C)n1cc(-c2ncnc3[nH]ccc23)cn1 (centres unmarked) [Compound 95]		100 to 500

Other lines, results leading:

Ki (JAK3) [nM]	Ki (JAK-2 enzyme) [nM]	Compound
100 to 500	< 100	CC[C@@H]1CC[C@@H](CC)N1C(=O)c1cc(-c2ncnc3[nH]ccc23)c[nH]1 [Compound 185]
100 to 500	< 100	O=C(CCC(=O)C1CC1)Nc1nc(-c2ncnc3[nH]ccc23)cs1 [Compound 170]
100 to 500	100 to 500	CCCn1cc(-c2ncnc3[nH]cc(C)c23)cn1 [Compound 161]
500 to 5000	500 to 5000	NC(=O)C1CCCN1C(=O)c1ccc(-c2ncnc3[nH]ccc23)o1 (centres unmarked) [Compound 221]
< 100	< 100	N#CCCN(CCC(F)(F)F)C(=O)c1cc(-c2ncnc3[nH]cc(Cl)c23)c[nH]1 [Compound 242]
100 to 500	< 100	COC(=O)[C@@H]1CC[C@H](C(=O)Nc2nc(-c3ncnc4[nH]ccc34)cs2)C1 [Compound 182]
< 100	< 100	CS(=O)(=O)N1CCC(C(=O)Nc2nc(-c3ncnc4[nH]ccc34)cs2)CC1 [Compound 179]
500 to 5000	< 100	COCCN(C)C(=O)c1cc(-c2ncnc3[nH]ccc23)cn1C [Compound 233]
< 100	< 100	O=C(c1ccc(-c2ncnc3[nH]ccc23)o1)N(CC1CCCC1)CC(F)(F)F [Compound 191]
< 100	< 100	CC[C@@H]1CC[C@@H](CC)N1C(=O)c1ccc(-c2ncnc3[nH]ccc23)o1 [Compound 194]
100 to 500	< 100	Cc1c[nH]c2ncnc(-c3cnn(CC(C)C)c3)c12 [Compound 162]
< 100	< 100	O=C(c1ccc(-c2ncnc3[nH]ccc23)o1)N(CC1CCC1)CC(F)(F)F [Compound 216]
100 to 500	< 100	COC(=O)C1CC=CCC1C(=O)Nc1nc(-c2ncnc3[nH]ccc23)cs1 (centres unmarked) [Compound 149]
500 to 5000	100 to 500	CC(C)N(CCC(F)(F)F)C(=O)c1cc(-c2ncnc3[nH]ccc23)co1 [Compound 247]
500 to 5000	100 to 500	COCCN(C)C(=O)c1cc(-c2ncnc3[nH]cc(C)c23)c[nH]1 [Compound 200]
100 to 500	< 100	CC1CCCN1C(=O)c1ccc(-c2ncnc3[nH]ccc23)o1 (centres unmarked) [Compound 218]
100 to 500	< 100	CC[C@@H]1CC[C@@H](CC)N1C(=O)c1cc(-c2ncnc3[nH]ccc23)co1 [Compound 246]
100 to 500	< 100	O=C(c1cc(-c2ncnc3[nH]cc(Cl)c23)c[nH]1)N(CCC(F)(F)F)CC1CCC1 [Compound 241]
100 to 500	< 100	Cc1c[nH]c2ncnc(-c3c[nH]c(C(=O)N(C)CCc4ccccc4)c3)c12 [Compound 203]
< 100	< 100	CC(=O)N1CCC(C(=O)Nc2nc(-c3ncnc4[nH]ccc34)cs2)CC1 [Compound 169]
< 100	< 100	Cn1cc(-c2ncnc3[nH]ccc23)cc1C(=O)N(CCC(F)(F)F)CC1CCC1 [Compound 223]
